Measurements: patent US20110124888A1, “STYRYLBENZOFURAN DERIVATIVES AS INHIBITORS FOR BETA-AMYLOID FIBRIL FORMATION AND PREPARATION METHOD THEREOF” (Korea Institute of Science and Technology, priority 2008, published 2011)
Where a name gives a salt, the structure may show the parent alone. Read-outs that look alike come from different tables or passages of the source. Blank lines part the entries; values can stand above or below the molecule they belong to.

Molecular target: T1, beta-amyloid 42 (Aβ42) (Homo sapiens, UniProt P05067)
T1 construct: Beta-amyloid 42 (Aβ42) was dissolved in dimethylsulfoxide (DMSO)
Assay: Inhibitory effect on the formation of beta-amyloid fibrils in vitro (ThT fluorescence assay)
Assay type: biochemical
Details: for IC50: In vitro ThT analysis (Aβ42: 25 μM); for % inhibition against the beta-amyloid 42 formation compared with curcumin: Tables 1 to 6, relative to curcumin; for inhibition at 10 µM: read-out: % Inhibition (10 μM)
Experimental: In order to investigate the inhibitory effect on the formation of beta-amyloid fibrils, the inventive compounds were examined as follows:
Beta-amyloid 42 (Aβ42) was dissolved in dimethylsulfoxide (DMSO) to form a […] Aβ42 stock solution. In addition, ThT (thioflavin T) was dissolved in distilled water to a concentration of 1 mM and subsequently diluted with 50 mM glycin buffer (pH 8.5) to yield a 5 μM ThT stock solution.
45 μL of PBS (phosphate buffer saline, pH 7.4) was added to each of a 96 well fluorescence microplate (white, F-bottom). 5 μL of the 250 μM Aβ42 stock solution was added to each well. The final concentration of each compound obtained in Examples was in a range of 10 to 0.001 μM by adding 2 μL of a solution, which is prepared by dissolving the subject compounds obtained in Examples in DMSO, to each well. At this time, the final concentration of Aβ42 in each well was 25 μM. The plate was then incubated at room temperature for 1 hr, and 150 μL of the 5 μM ThT stock solution was added to each well.
The fluorescence intensity of each well was determined with the multi label fluorescence counter (LS-55 Luminescence spectrometer, Perkin Elmer) at an excitation wavelength of 450 nm (excitation slit width: 10 nm) and an emission wavelength of 482 nm (emission slit width: 10 nm), while adjusting counting time to 1 second. The control group was prepared by adding PBS solution, Aβ42 and DMSO, without adding the inventive compound. % Inhibition on the formation of beta-amyloid fibrils was calculated in accordance with the following equation and IC5O was calculated by using GraphPad Prism version 4.03 Program.
% Inhibition=[1−(C−D)/(A−B)]×100 Equation 1%
A (control group): fluorescence intensity in a group treated with PBS solution, Aβ42, and DMSO
B (blank): fluorescence intensity in a group treated with PBS solution and DMSO
C (experimental group): fluorescence intensity in a group treated with PBS solution, Aβ42, DMSO, and the inventive compound
D (compensation value to the experimental group): fluorescence intensity in a group treated with PBS solution, DMSO, and the inventive compound

[1] = 10 μM compound, Aβ42 25 μM, experiment of Table 5
[2] = 10 μM compound, Aβ42 25 μM, experiment of Table 2
[3] = 10 μM compound, Aβ42 25 μM, experiment of Table 6
[4] = 10 μM compound, Aβ42 25 μM, experiment of Table 3
[5] = 10 μM compound, Aβ42 25 μM, experiment of Table 4

T1 sequence (P05067 672-713 limits assumed): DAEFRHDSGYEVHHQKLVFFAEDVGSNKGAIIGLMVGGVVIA

- IC50 (experiment of Table 1): 168 nM
- % inhibition against the beta-amyloid 42 formation compared with curcumin: superior % inhibition
Molecule: CN(C)c1ccc(C=Cc2cc3cc(I)ccc3o2)cc1 [Compound 8, 5-iodo-2-(4-dimethylaminostyryl)benzofuran]

- inhibition at 10 µM [1]: 24.5%
Molecule: CNc1ccc(C=Cc2cc3cc(OC)ccc3o2)cc1OC [Compound 36, 5-methoxy-2-(3-methoxy-4-methylaminostyryl)benzofuran]

- inhibition at 10 µM [1]: 42.2%
Molecule: CCN(CC)c1ccc(C=Cc2cc3ccc(O)cc3o2)cc1 [Compound 69, 6-hydroxy-2-(4-diethylaminostyryl)benzofuran]

- inhibition at 10 µM [2]: 55.1%
- IC50 (experiment of Table 2): 1180 nM
Molecule: CCN(CC)c1ccc(C=Cc2cc3cc(OC)ccc3o2)cc1 [Compound 35, 5-methoxy-2-(4-diethylaminostyryl)benzofuran]

- IC50 (experiment of Table 1): 470 nM
- % inhibition against the beta-amyloid 42 formation compared with curcumin: superior % inhibition
Molecule: CN(C)c1ccc(C=Cc2cc3cc(Br)ccc3o2)cc1 [Compound 7, 5-bromo-2-(4-dimethylaminostyryl)benzofuran]

- inhibition at 10 µM [3]: 84.7%
- IC50 (experiment of Table 6): 1490 nM
- % inhibition against the beta-amyloid 42 formation compared with curcumin: superior % inhibition
Molecule: CNc1ccc(C=Cc2cc3cc(OCCOCCF)ccc3o2)cc1 [Compound 44, 5-(2-(2-fluoroethoxy)ethoxy)-2-(4-methylaminostyryl)benzofuran]

- inhibition at 10 µM [3]: 77.8%
- IC50 (experiment of Table 6): 903 nM
- % inhibition against the beta-amyloid 42 formation compared with curcumin: superior % inhibition
Molecule: COc1ccc(C=Cc2cc3cc(OC)c(OC)cc3o2)cc1 [Compound 54, 5,6-dimethoxy-2-(4-methoxystyryl)benzofuran]

- IC50 (experiment of Table 1): 199 nM
- % inhibition against the beta-amyloid 42 formation compared with curcumin: superior % inhibition
Molecule: CN(C)c1ccc(C=Cc2cc3cc(Cl)ccc3o2)cc1 [Compound 6, 5-chloro-2-(4-dimethylaminostyryl)benzofuran]

- inhibition at 10 µM [4]: < 1%
Molecule: CCN(CC)c1ccc(C=Cc2cc3cc(C)ccc3o2)cc1 [Compound 41, 5-methyl-2-(4-diethylaminostyryl)benzofuran]

- inhibition at 10 µM [1]: 67.4%
- IC50 (experiment of Table 5): 3290 nM
Molecule: COc1ccc(C=Cc2cc3ccccc3o2)cc1OC [Compound 28, 2-(3,4-dimethoxystyryl)benzofuran]

- IC50 (experiment of Table 1): 2160 nM
Molecule: CNc1ccc(C=Cc2cc3cc(O)ccc3o2)cc1 [Compound 19, 5-hydroxy-2-(4-methylaminostyryl)benzofuran hydrochloride]

- inhibition at 10 µM [5]: 62.4%
- IC50 (experiment of Table 4): 5790 nM
Molecule: COc1ccc(C=Cc2cc3cc(I)ccc3o2)cc1OC [Compound 50, 5-iodo-2-(3,4-dimethoxystyryl)benzofuran]

- inhibition at 10 µM [2]: 72.5%
- IC50 (experiment of Table 2): 181 nM
- % inhibition against the beta-amyloid 42 formation compared with curcumin: superior % inhibition
Molecule: COc1ccc(C=Cc2cc3cc(Cl)ccc3o2)cc1OC [Compound 34, 5-chloro-2-(3,4-dimethoxystyryl)benzofuran]

- IC50 (experiment of Table 1): 1980 nM
Molecule: CN(C)c1ccc(C=Cc2cc3cc(F)ccc3o2)cc1 [Compound 5, 5-fluoro-2-(4-dimethylaminostyryl)benzofuran]

- IC50 (experiment of Table 1): 2190 nM
Molecule: CN(C)c1ccc(C=Cc2cc3ccc(F)cc3o2)cc1 [Compound 12, 6-fluoro-2-(4-dimethylaminostyryl)benzofuran]

- inhibition at 10 µM [4]: 58.3%
Molecule: COc1ccc(C=Cc2cc3ccccc3o2)cc1 [Compound 27, 2-(4-methoxystyryl)benzofuran]

- inhibition at 10 µM [1]: 56.2%
Molecule: CNc1ccc(C=Cc2cc3cc(OC)c(OC)cc3o2)cc1OC [Compound 53, 5,6-dimethoxy-2-(3-methoxy-4-methylaminostyryl)benzofuran]

- IC50 (experiment of Table 1): 2300 nM
Molecule: CN(C)c1ccc(C=Cc2cc3ccccc3o2)cc1 [Compound 1, 2-(4-dimethylaminostyryl)benzofuran]

- inhibition at 10 µM [4]: 57.5%
Molecule: Cc1ccc2cc(C=Cc3ccc(N)cc3)oc2c1 [Compound 61, 6-methyl-2-(4-aminostyryl)benzofuran trifluoroacetate]

- inhibition at 10 µM (10 μM compound, Aβ42 25 μM, experiment of Table 7): 25.7%
- IC50 (experiment of Table 7): 31800 nM
Molecule: CN(C)c1ccc(/C=C/c2nc3ccccc3s2)cc1 [Comparative Example 2, 2-(4-dimethylaminophenylethenyl)benzothiazole, reference compound]

- IC50 (experiment of Table 1): 3210 nM
Molecule: CN(C)c1ccc(C=Cc2cc3ccc(Cl)cc3o2)cc1 [Compound 13, 6-chloro-2-(4-dimethylaminostyryl)benzofuran]

- inhibition at 10 µM [1]: 51.4%
Molecule: COc1ccc(C=Cc2cc3cc(OC)c(OC)cc3o2)cc1OC [Compound 55, 5,6-dimethoxy-2-(3,4-dimethoxystyryl)benzofuran]

Molecule: CNc1ccc(C=Cc2cc3ccccc3o2)cc1 [Compound 25, 2-(4-methylaminostyryl)benzofuran trifluoroacetate]
- inhibition at 10 µM: 59%

- inhibition at 10 µM [5]: 37.9%
- IC50 (experiment of Table 4): 963 nM
Molecule: CCN(CC)c1ccc(C=Cc2cc3cc(Cl)ccc3o2)cc1 [Compound 31, 5-chloro-2-(4-diethylaminostyryl)benzofuran]

- IC50 (experiment of Table 1): 528 nM
- % inhibition against the beta-amyloid 42 formation compared with curcumin: superior % inhibition
Molecule: COc1ccc2cc(C=Cc3ccc(N(C)C)c(OC)c3)oc2c1 [Compound 23, 6-methoxy-2-(3-methoxy-4-dimethylaminostyryl)benzofuran]

- inhibition at 10 µM [3]: 79.9%
- IC50 (experiment of Table 6): 1020 nM
- % inhibition against the beta-amyloid 42 formation compared with curcumin: superior % inhibition
Molecule: COc1ccc2cc(C=Cc3ccc(OC)c(OC)c3)oc2c1 [Compound 59, 6-methoxy-2-(3,4-dimethoxystyryl)benzofuran]

Molecule: 5-methyl-2-(aminostyryl)benzofuran trifluoroacetate [Compound 39]
- % Inhibition (10 μM) [4]: 60.23%

- IC50 (experiment of Table 1): 5440 nM
Molecule: COc1ccc2cc(C=Cc3ccc(N)cc3)oc2c1 [Compound 20, 6-methoxy-2-(4-aminostyryl)benzofuran]

- inhibition at 10 µM [2]: 69.7%
- IC50 (experiment of Table 2): 15900 nM
Molecule: COc1ccc(C=Cc2cc3cc(C)ccc3o2)cc1 [Compound 42, 5-methyl-2-(4-methoxystyryl)benzofuran]

- inhibition at 10 µM [5]: 82.8%
- IC50 (experiment of Table 4): 1990 nM
Molecule: Nc1ccc(C=Cc2cc3cc(Cl)ccc3o2)cc1 [Compound 29, 5-chloro-2-(4-aminostyryl)benzofuran]

- inhibition at 10 µM [4]: 4.54%
Molecule: CCN(CC)c1ccc(C=Cc2cc3ccccc3o2)cc1 [Compound 26, 2-(4-diethylaminostyryl)benzofuran]

- inhibition at 10 µM [1]: 67.5%
- IC50 (experiment of Table 5): 884 nM
- % inhibition against the beta-amyloid 42 formation compared with curcumin: superior % inhibition
Molecule: COc1ccc(C=Cc2cc3ccc(C)cc3o2)cc1OC [Compound 65, 6-methyl-2-(3,4-dimethoxystyryl)benzofuran]

- inhibition at 10 µM [4]: 70.2%
- inhibition at 10 µM [3]: 73.5%
- IC50 (experiment of Table 6): 5050 nM
Molecule: CNc1ccc(C=Cc2cc3cc(C)ccc3o2)cc1 [Compound 40, 5-methyl-2-(4-methylaminostyryl)benzofuran trifluoroacetate]

- inhibition at 10 µM [3]: 61%
- IC50 (experiment of Table 6): 1770 nM
- % inhibition against the beta-amyloid 42 formation compared with curcumin: superior % inhibition
Molecule: CNc1ccc(C=Cc2cc3cc(I)ccc3o2)cc1 [Compound 46, 5-iodo-2-(4-methylaminostyryl)benzofuran]

- IC50 (experiment of Table 1): 3620 nM
Molecule: CN(C)c1ccc(C=Cc2cc3ccc(O)cc3o2)cc1 [Compound 10, 6-hydroxy-2-(4-dimethylaminostyryl)benzofuran]

- inhibition at 10 µM [5]: 38%
- IC50 (experiment of Table 4): 16800 nM
Molecule: COc1ccc(C=Cc2cc3cc(I)ccc3o2)cc1 [Compound 49, 5-iodo-2-(4-methoxystyryl)benzofuran]

- inhibition at 10 µM [1]: 25.8%
Molecule: CNc1ccc(C=Cc2cc3cc(OC)c(OC)cc3o2)cc1 [Compound 70, 5,6-dimethoxy-2-(4-methylaminostyryl)benzofuran]
